Patent US10010547B2 (CASCADIAN THERAPEUTICS, INC., priority 2014, dated 2018)
Where a name gives a salt, the structure may show the parent alone. Read-outs that look alike come from different tables or passages of the source.

Columns and labels:
MIA PaCa-2 cells = experiment: Gemcitabine Combination Cell Assay (Cell Titer Glo); format: cell-based; settings: for IC50: Homo sapiens; for 10xLS: approximate concentration of Chk1 inhibitor that results in a 10-fold reduction in the IC50 of gemcitabine alone; for 2xLS: approximate concentration of Chk1 inhibitor that results in a two-fold reduction in the IC50 of gemcitabine alone
Method: Gemcitabine Combination Cell Assay
Exponentially growing MIA PaCa-2 (ATCC CRL-1420) cells are treated with trypsin to remove cells from the plate surface. Approximately 10,000 cells/well are plated in 96 well plates in RPMI containing 10% fetal bovine serum, 1% sodium pyruvate and 1% L-GlutaMax. Cells are allowed to adhere to the plate surface overnight. Serial half-log dilutions of Chk1 inhibitor test compounds and gemcitabine are made with a final highest concentration of 3000 nM and 100 nM, respectively. Chk1 inhibitors and gemcitabine are combined so that each concentration of Chk1 inhibitor is added to each concentration of gemcitabine. Each drug is also tested as a single agent. Drugs are added to adherent cells (in duplicate) and incubated for 72 h. At 72 h the cells are treated with Promega Cell Titer Glo reagent for approximately 15 minutes. Luminescence (relative light units, RLU) is recorded using a BMG Polarstar Omega plate reader. The single agent concentration that results in a 50% reduction in total signal (IC50) is calculated using PRISM software and a four-parameter non-linear regression curve fit. For combination studies the RLUs are plotted using PRISM on an XY plot with the gemcitabine concentration on the X axis and RLU on the Y axis. The RLU for each concentration of Chk1 inhibitor is plotted as a function of gemcitabine concentration. The IC50 for gemcitabine alone and at each concentration of Chk1 is determined using a four-parameter non-linear regression curve fit. The approximate concentration of Chk1 inhibitor that results in a two and ten-fold reduction in the IC50 of gemcitabine alone is calculated as an indication of synergistic potency.
From the results obtained by following the above protocol, the IC50 values against MIAPaca-2 cells of the Chk1 inhibitor alone (Chk1 IC50), the approximate concentration of Chk1 inhibitor that results in a two-fold (2×LS) and a 10-fold (10×LS) reduction in the IC50 of gemcitabine alone of each of the compounds of Examples 1-154 are shown in Table 4.

Chk-1 kinase = Chk-1 kinase (Homo sapiens (Human), UniProt O14757); experiment: Chk-1 Kinase Inhibiting Activity (33P-ATP filter assay, CHKtide substrate); format: biochemical; settings: against Chk-1 kinase; read-out: IC50
Chain of Chk-1 kinase (O14757 whole entry): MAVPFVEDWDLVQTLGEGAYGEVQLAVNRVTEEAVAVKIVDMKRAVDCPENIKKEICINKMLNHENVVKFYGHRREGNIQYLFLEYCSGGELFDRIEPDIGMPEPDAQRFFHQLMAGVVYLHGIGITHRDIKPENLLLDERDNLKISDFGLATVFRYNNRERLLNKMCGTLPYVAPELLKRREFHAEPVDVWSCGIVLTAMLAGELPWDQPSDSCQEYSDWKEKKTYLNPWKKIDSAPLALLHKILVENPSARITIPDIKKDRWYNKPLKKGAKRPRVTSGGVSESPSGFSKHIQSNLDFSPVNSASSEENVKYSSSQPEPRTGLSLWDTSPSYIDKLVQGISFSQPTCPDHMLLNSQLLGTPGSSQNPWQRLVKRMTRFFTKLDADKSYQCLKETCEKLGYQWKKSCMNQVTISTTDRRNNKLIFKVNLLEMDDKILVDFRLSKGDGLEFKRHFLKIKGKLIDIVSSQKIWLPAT
Method: Chk-1 Kinase Inhibiting Activity
The compounds of the invention were tested for activity against Chk-1 kinase using the materials and protocols set out below.
Base Reaction buffer: 20 mM Hepes (pH 7.5), 10 mM MgCl2, 1 mM EGTA, 0.02% Brij35, 0.02 mg/ml BSA, 0.1 mM Na3VO4, 2 mM DTT, 1% DMSO
*Required cofactors are added individually to each kinase reaction
(i) Prepare indicated substrate in freshly prepared Base Reaction Buffer
(ii) Deliver any required cofactors to the substrate solution above
(iii) Deliver indicated kinase into the substrate solution and gently mix
(iv) Deliver compounds in DMSO into the kinase reaction mixture
(v) Deliver ^33P-ATP (specific activity 0.01 μCi/μl final) into the reaction mixture to initiate the reaction.
(vi) Incubate kinase reaction for 120 minutes at room temperature
(vii) Reactions are spotted onto P81 ion exchange paper (Whatman #3698-915)
(viii) Wash filters extensively in 0.1% phosphoric acid.
(ix) Dry filters and measure counts in scintillation counter
Recombinant full length construct, N-terminal GST tagged, purified from insect cells.
No special measures were taken to activate this kinase.
Final concentration in assay=0.5 nM
Peptide sequence: [[…]]
Final concentration in assay=20 μM
No additional cofactors are added to the reaction mixture
From the results obtained by following the above protocol, the IC50 values against Chk-1 kinase of each of the compounds of Examples 1-153 were determined and these are shown in Table 3.

[1] = Chk1 inhibitor alone, MIA PaCa-2 cells, 72 h, read-out: Chk1 IC50
[2] = MIA PaCa-2, 72 h, read-out: Chk1 IC50 (nM)

IC50 (MIA PaCa-2 cells; [1]) [nM] | IC50 (Chk-1 kinase) [nM] | Structure (SMILES) | 10xLS (MIA PaCa-2 cells; MIA PaCa-2 cells, 72 h) [nM] | 2xLS (MIA PaCa-2 cells; MIA PaCa-2 cells, 72 h) [nM] | IC50 (MIA PaCa-2 cells; [2]) [nM]
3180 | 2.4 | CN1CCC(c2ccc(-c3cc(Nc4cnc(C#N)cn4)n[nH]3)c(F)c2)CC1 [Example 21, 5-[[5-[2-fluoro-4-(1-methyl-4-piperidyl)phenyl]-1H-pyrazol-3-yl]amino]pyrazine-2-carbonitrile] | 1000 | 100 | –
266 | 0.12 | COc1cc(N2CCCN(C)CC2)ccc1-c1cc(Nc2cnc(C#N)cn2)n[nH]1 [Example 23, 5-[[5-[2-methoxy-4-(4-methyl-1,4-diazepan-1-yl)phenyl]-1H-pyrazol-3-yl]amino]pyrazine-2-carbonitrile] | <100 | <3 | –
> 3000 | 14 | COc1cc(C2CCN(C)CC2)ccc1-c1cc(Nc2ccc(C#N)cn2)n[nH]1 [Example 25, 6-[[5-[2-methoxy-4-(1-methyl-4-piperidyl)phenyl]-1H-pyrazol-3-yl]amino]pyridine-3-carbonitrile] | >3000 | 300 | –
5580 | 10 | COc1cc(C2CCN(C)CC2)ccc1-c1cc(Nc2cnc(C)cn2)n[nH]1 [Example 26, N-[5-[2-methoxy-4-(1-methyl-4-piperidyl)phenyl]-1H-pyrazol-3-yl]-5-methyl-pyrazin-2-amine] | >3000 | 1000 | –
5750 | 3.6 | CN1CCC(c2ccc(-c3cc(Nc4cnc(C#N)cn4)n[nH]3)cc2)CC1 [Example 27, 5-[[5-[4-(1-methyl-4-piperidyl)phenyl]-1H-pyrazol-3-yl]amino]pyrazine-2-carbonitrile] | 3000 | 300 | –
176 | 0.068 | COc1cc(OCC2CCN(C)CC2)ccc1-c1cc(Nc2cnc(C#N)cn2)n[nH]1 [Example 29, 5-[[5-[2-methoxy-4-[(1-methyl-4-piperidyl)methoxy]phenyl]-1H-pyrazol-3-yl]amino]pyrazine-2-carbonitrile] | 100 | 3 | –
> 3000 | 17 | COc1cc(C2CCN(C)CC2)ccc1-c1cc(Nc2ccc(C#N)c(F)c2)n[nH]1 [Example 30, 2-fluoro-4-[[5-[2-methoxy-4-(1-methyl-4-piperidyl)phenyl]-1H-pyrazol-3-yl]amino]benzonitrile] | >3000 | 1000 | –
838 | 0.37 | COc1cc(CNc2ccccn2)ccc1-c1cc(Nc2cnc(C#N)cn2)n[nH]1 [Example 31, 5-[[5-[2-methoxy-4-[(2-pyridylamino)methyl]phenyl]-1H-pyrazol-3-yl]amino]pyrazine-2-carbonitrile] | 100 | 3 | –
784 | 0.26 | COc1cc(C2CCN(C)CC2)c(F)cc1-c1cc(Nc2cnc(C#N)cn2)n[nH]1 [Example 32, 5-[[5-[5-fluoro-2-methoxy-4-(1-methyl-4-piperidyl)phenyl]-1H-pyrazol-3-yl]amino]pyrazine-2-carbonitrile] | 300 | 30 | –
62 | 0.074 | COc1cc(O[C@H]2CCNC2)ccc1-c1cc(Nc2cnc(C#N)cn2)n[nH]1 [Example 33, 5-[[5-[2-methoxy-4-[(3S)-pyrrolidin-3-yl]oxy-phenyl]-1H-pyrazol-3-yl]amino]pyrazine-2-carbonitrile] | <30 | <3 | –
183 | 0.14 | COc1cc(OCC2CCCN2)ccc1-c1cc(Nc2cnc(C#N)cn2)n[nH]1 (stereo not drawn) [Example 34, 5-[[5-[2-methoxy-4-(pyrrolidin-2-ylmethoxy)phenyl]-1H-pyrazol-3-yl]amino]pyrazine-2-carbonitrile] | 100 | 3 | –
281 | 0.095 | COc1cc(OCC2CCNCC2)ccc1-c1cc(Nc2cnc(C#N)cn2)n[nH]1 [Example 36, 5-[[5-[2-methoxy-4-(4-piperidylmethoxy)phenyl]-1H-pyrazol-3-yl]amino]pyrazine-2-carbonitrile] | 100 | 3 | –
182 | 0.11 | COc1cc(CNC2CCN(C)CC2)ccc1-c1cc(Nc2cnc(C#N)cn2)n[nH]1 [Example 37, 5-[[5-[2-methoxy-4-[[(1-methyl-4-piperidyl)amino]methyl]phenyl]-1H-pyrazol-3-yl]amino]pyrazine-2-carbonitrile] | <100 | 3 | –
2750 | 0.88 | CC(C)Oc1cc(C2CCN(C)CC2)ccc1-c1cc(Nc2cnc(C#N)cn2)n[nH]1 [Example 38, 5-[[5-[2-isopropoxy-4-(1-methyl-4-piperidyl)phenyl]-1H-pyrazol-3-yl]amino]pyrazine-2-carbonitrile] | 1000 | 100 | –
168 | 0.18 | COc1cc(C2CCCNC2)ccc1-c1cc(Nc2cnc(C#N)cn2)n[nH]1 (stereo not drawn) [Example 39, 5-[[5-[2-methoxy-4-(3-piperidyl)phenyl]-1H-pyrazol-3-yl]amino]pyrazine-2-carbonitrile] | 30 | <3 | –
188 | 0.14 | COc1cc(C2CCCN(C)C2)ccc1-c1cc(Nc2cnc(C#N)cn2)n[nH]1 (stereo not drawn) [Example 40, 5-[[5-[2-methoxy-4-(1-methyl-3-piperidyl)phenyl]-1H-pyrazol-3-yl]amino]pyrazine-2-carbonitrile] | 30 | <3 | –
73 | 0.21 | COc1cc(O[C@H]2CCN(C)C2)ccc1-c1cc(Nc2cnc(C#N)cn2)n[nH]1 [Example 42, 5-[[5-[2-methoxy-4-[(3S)-1-methylpyrrolidin-3-yl]oxy-phenyl]-1H-pyrazol-3-yl]amino]pyrazine-2-carbonitrile] | <30 | <3 | –

Structure (SMILES) | IC50 (MIA PaCa-2 cells; [1]) [nM] | IC50 (Chk-1 kinase) [nM] | 10xLS (MIA PaCa-2 cells; MIA PaCa-2 cells, 72 h) [nM] | 2xLS (MIA PaCa-2 cells; MIA PaCa-2 cells, 72 h) [nM] | IC50 (MIA PaCa-2 cells; [2]) [nM]
COc1cc(N2CCN(C)CC2)ccc1-c1cc(Nc2cnc(C#N)cn2)n[nH]1 [Example 22, 5-[[5-[2-methoxy-4-(4-methylpiperazin-1-yl)phenyl]-1H-pyrazol-3-yl]amino]pyrazine-2-carbonitrile hydrochloride] | – | 0.026 | <30 | <3 | 88
COc1cc(C2CCN(C)CC2)ccc1-c1cc(Nc2ccc(C#N)nc2)n[nH]1.Cl [Example 24, 5-[[5-[2-methoxy-4-(1-methyl-4-piperidyl)phenyl]-1H-pyrazol-3-yl]amino]pyridine-2-carbonitrile hydrochloride] | 934 | 0.24 | 300 | 10 | –
COc1cc(OC2CCN(C)CC2)ccc1-c1cc(Nc2cnc(C#N)cn2)n[nH]1 [Example 28, 5-[[5-[2-methoxy-4-[(1-methyl-4-piperidyl)oxy]phenyl]-1H-pyrazol-3-yl]amino]pyrazine-2-carbonitrile hydrochloride] | – | 0.13 | <100 | <3 | 279
COc1cc(OCC2CCCN2C)ccc1-c1cc(Nc2cnc(C#N)cn2)n[nH]1 (stereo not drawn) [Example 35, 5-[[5-[2-methoxy-4-[(1-methylpyrrolidin-2-yl)methoxy]phenyl]-1H-pyrazol-3-yl]amino]pyrazine-2-carbonitrile] | 217 | 0.14 | 100 | 3 | –
